Test results: EPA's ToxRefDB 2

What was measured:
[1] = tested on: rat; conditions: Subchronic oral toxicity in rodents, wistar, Gavage/Intubation, dose end: 90 day, group: systemic
[2] = tested on: rat; conditions: Carcinogenicity, wistar, Oral, Gavage/Intubation, dose end: 24 month, group: systemic
[3] = tested on: rat; conditions: Subchronic oral toxicity in rodents; wistar; Injection; Intravenous; dose end: 3 month; group: systemic; systemic / clinical chemistry / urea nitrogen / urea + systemic / hematology / erythrocyte (rbc) count differential / erythrocyte (rbc) + …
[4] = tested on: dog; conditions: Sub-acute repeat dose toxicity, beagle, Injection, Intravenous, dose end: 4 week, group: systemic
[5] = tested on: mouse; conditions: Subchronic oral toxicity in rodents, other, Gavage/Intubation, dose end: 90 day, group: systemic
[6] = tested on: rat; conditions: Neurotoxicity screening battery; sprague dawley; Oral; Feed; dose end: 90 day; group: cannot be grouped; systemic / in life observation / body weight / body weight + systemic / in life observation / food consumption / food consumption + systemic…
[7] = tested on: dog; conditions: Chronic toxicity, beagle, Oral, Feed, dose end: 104 week, group: systemic
[8] = tested on: mouse; conditions: Combined chronic toxicity/carcinogenicity; cd1; Oral; Feed; dose end: 24 month; group: systemic; systemic / pathology microscopic / stomach / carcinoma + systemic / organ weight / kidney / nos + systemic / organ weight / ovary / relative…
[9] = tested on: rat; conditions: Sub-acute dermal toxicity, fischer, Topical, dose end: 21 day, group: systemic, systemic / in life observation / clinical signs / desquamation + systemic / pathology microscopic / skin / hyperkeratosis + systemic / …
[10] = tested on: rat; conditions: Multigenerational reproductive toxicity study, Crl: CD BR, Oral, Feed, dose end: 2 generation
[11] = tested on: mouse; conditions: Subchronic oral toxicity in rodents, cd1, Feed, dose end: 90 day, group: systemic
[12] = tested on: dog; conditions: Chronic toxicity, beagle, Oral, Capsule, dose end: 52 week, group: systemic
[13] = tested on: rat; conditions: Combined chronic toxicity/carcinogenicity, fischer, Oral, Feed, dose end: 129 week, group: systemic
[14] = tested on: rat; conditions: Subchronic oral toxicity in rodents, sprague dawley, Feed, dose end: 90 day, group: systemic, systemic / pathology microscopic / stomach / hyperkeratosis + systemic / pathology microscopic / stomach / hyperplasia
[15] = tested on: dog; conditions: Subchronic oral toxicity in nonrodent, beagle, Feed, dose end: 13 week, group: systemic
[16] = tested on: rat; conditions: Combined chronic toxicity/carcinogenicity; sprague dawley; Oral; Feed; dose end: 104 week; group: systemic; systemic / pathology microscopic / liver / hypertrophy + systemic / pathology microscopic / stomach / hyperkeratosis + systemic / pathology …
[17] = tested on: mouse; conditions: Carcinogenicity; cd1; Oral; Feed; dose end: 18 month; group: systemic; systemic / pathology microscopic / stomach / hyperplasia
[18] = tested on: dog; conditions: Chronic toxicity, beagle, Oral, Feed, dose end: 52 week, group: systemic
[19] = systemic / clinical chemistry / urea nitrogen / urea + systemic / hematology / blood clotting / blood clotting - clotting time + systemic / …
[20] = systemic / in life observation / clinical signs / salivation + systemic / organ weight / liver / relative to body weight + systemic / in …
[21] = systemic / pathology microscopic / stomach / neoplasm nos + systemic / hematology / hematocrit (hct) / hematocrit (hct) + systemic / …
[22] = systemic / in life observation / clinical signs / vomitting + systemic / organ weight / prostate / nos
[23] = systemic / organ weight / liver / relative to body weight + systemic / organ weight / kidney / absolute
[24] = systemic / clinical chemistry / bilirubin / total bilirubin
[25] = group: offspring, systemic / pathology gross / stomach / irregular surface + systemic / pathology gross / stomach / thickened + systemic / pathology …
[26] = group: parental, systemic / organ weight / kidney / relative to body weight + systemic / pathology gross / stomach / irregular surface + systemic / pathology…
[27] = systemic / pathology gross / urinary bladder / lesion(s) (nos)
[28] = systemic / clinical chemistry / alanine aminotransferase (alt/sgpt) / alanine aminotransferase (alt/sgpt)
[29] = systemic / pathology microscopic / kidney / adenoma + systemic / pathology microscopic / kidney / carcinoma
[30] = systemic / pathology microscopic / kidney / adenoma + systemic / pathology microscopic / kidney / carcinoma + systemic / pathology …
[31] = systemic / pathology microscopic / liver / inflammation + systemic / clinical chemistry / alanine aminotransferase (alt/sgpt) / alanine …
[32] = systemic / pathology gross / stomach / adhesions + systemic / pathology gross / stomach / thickened + systemic / pathology microscopic / …
[33] = systemic / pathology microscopic / stomach / congestion + systemic / pathology microscopic / stomach / mineralization + systemic / clinical …

Structure (SMILES): CC(C)c1ccc(C(=O)N=C(N)N)cc1S(C)(=O)=O.CS(=O)(=O)O [Cariporide mesylate]
- LOAEL [1, 19]: 100 mg/kg/day
- NEL [1, 19]: 5 mg/kg/day
- NOAEL [1, 19]: 22 mg/kg/day
- LEL ([1]; systemic / organ weight / liver / relative to body weight): 22 mg/kg/day
- LEL [2, 20]: 12 mg/kg/day
- NEL [2, 20]: < 12 mg/kg/day
- LOAEL [2, 21]: > 400 mg/kg/day
- NOAEL [2, 21]: ≥ 400 mg/kg/day
- LEL [3]: 125 mg/kg/day
- LOAEL [3]: 125 mg/kg/day
- NEL [3]: 25 mg/kg/day
- NOAEL [3]: 25 mg/kg/day
- NEL ([4]; systemic / in life observation / clinical signs / vomitting): 5 mg/kg/day
- LEL [4, 22]: 20 mg/kg/day
- LOAEL [4, 22]: > 20 mg/kg/day
- NOAEL [4, 22]: ≥ 20 mg/kg/day
- NOAEL ([5]; systemic / organ weight / liver / relative to body weight + systemic / in life observation / clinical signs / abnormal gait + systemic / in …): 250 mg/kg/day
- LEL [5, 23]: 250 mg/kg/day
- LOAEL [5, 23]: 500 mg/kg/day
- NEL [5, 23]: < 250 mg/kg/day

Structure (SMILES): N#Cc1c(Cl)c(Cl)c(Cl)c(C#N)c1Cl [Chlorothalonil]
- LEL [6]: 232 mg/kg/day
- LOAEL [6]: 232 mg/kg/day
- NEL [6]: 22 mg/kg/day
- NOAEL [6]: 22 mg/kg/day
- LEL [7, 24]: 1.8 mg/kg/day
- NEL [7, 24]: < 1.8 mg/kg/day
- LOAEL ([7]; systemic / pathology microscopic / kidney / vacuolization + systemic / clinical chemistry / bilirubin / total bilirubin): 3.5 mg/kg/day
- NOAEL ([7]; systemic / pathology microscopic / kidney / vacuolization + systemic / pathology microscopic / kidney / pigmentation): 1.8 mg/kg/day
- LEL [8]: 112 mg/kg/day
- LOAEL [8]: 112 mg/kg/day
- NEL [8]: < 112 mg/kg/day
- NOAEL [8]: < 112 mg/kg/day
- LEL [9]: 60 mg/kg/day
- LOAEL [9]: 60 mg/kg/day
- NEL [9]: < 60 mg/kg/day
- NOAEL [9]: < 60 mg/kg/day
- LEL [10, 25]: 32.9 mg/kg/day
- LOAEL [10, 25]: 32.9 mg/kg/day
- NEL [10, 25]: < 32.9 mg/kg/day
- NOAEL [10, 25]: < 32.9 mg/kg/day
- LEL [10, 26]: 28.6 mg/kg/day
- LOAEL [10, 26]: 28.6 mg/kg/day
- NEL [10, 26]: < 28.6 mg/kg/day
- NOAEL [10, 26]: < 28.6 mg/kg/day
- LEL [11, 27]: 1.12 mg/kg/day
- NEL [11, 27]: < 1.12 mg/kg/day
- NOAEL ([11]; systemic / pathology microscopic / stomach / hyperkeratosis + systemic / pathology microscopic / stomach / hyperplasia + systemic / clinical…): 2.25 mg/kg/day
- LOAEL ([11]; systemic / pathology microscopic / stomach / hyperkeratosis + systemic / pathology microscopic / stomach / hyperplasia + systemic / …): 7.5 mg/kg/day
- LEL [12, 28]: 15 mg/kg/day
- NEL [12, 28]: < 15 mg/kg/day
- LOAEL ([12]; systemic / in life observation / body weight / body weight gain): 500 mg/kg/day
- NOAEL ([12]; systemic / in life observation / body weight / body weight gain + systemic / clinical chemistry / alanine aminotransferase (alt/sgpt) / …): 150 mg/kg/day
- LOAEL [13, 29]: 40 mg/kg/day
- NOAEL [13, 29]: < 40 mg/kg/day
- LEL [13, 30]: 40 mg/kg/day
- NEL [13, 30]: < 40 mg/kg/day
- LEL [14]: 2.3 mg/kg/day
- LOAEL [14]: 2.3 mg/kg/day
- NEL [14]: < 2.3 mg/kg/day
- NOAEL [14]: < 2.3 mg/kg/day
- LOAEL ([15]; systemic / pathology microscopic / liver / infiltration cellular + systemic / pathology microscopic / liver / inflammation): 56.5 mg/kg/day
- NOAEL ([15]; systemic / pathology microscopic / liver / infiltration cellular + systemic / pathology microscopic / liver / inflammation + systemic / …): 5.6 mg/kg/day
- LEL [15, 31]: 5.6 mg/kg/day
- NEL [15, 31]: < 5.6 mg/kg/day
- LEL [16]: 0.7 mg/kg/day
- LOAEL [16]: 0.9 mg/kg/day
- NEL [16]: < 0.7 mg/kg/day
- NOAEL [16]: < 0.9 mg/kg/day
- LEL [17]: 1.9 mg/kg/day
- LOAEL [17]: 1.9 mg/kg/day
- NEL [17]: < 1.9 mg/kg/day
- NOAEL [17]: < 1.9 mg/kg/day
- LOAEL [18, 32]: 43.3 mg/kg/day
- NOAEL [18, 32]: 5.1 mg/kg/day
- LEL [18, 33]: 5.1 mg/kg/day
- NEL [18, 33]: < 5.1 mg/kg/day
